# Measured values from patent US6358885B1, “Substituted phenylheterocyclic herbicides” (Mississippi State University, priority 1992, dated 2002).
# Columns and labels:
# purple nutsedge = test: Test B preemergence/postemergence greenhouse plant response rating 0 to 10; type: in vivo, Cyperus rotundus; conditions: 0 to 10 scale
# Summary of the method: (§1)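 Test chemicals, dissolved in a non-phytotoxic solvent, were applied to soil at planting and, at the same time, over foliage of seedlings at the one to four leaf stage.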
# chickweed = test: Test C preemergence/postemergence greenhouse plant response rating 0 to 100; type: in vivo, Stellaria media; conditions: POSTEMERGENCE; for Plant response rating, Chickweed: 0 to 100 scale
# Summary of the method: (§2)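 Compounds in non-phytotoxic solvent went onto sandy loam before emergence (seeded one day earlier) or onto plants at the one-to-four leaf stage. Duck salad was treated via flood water (~2.5 cm, maintained) over silt loam.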
# lambsquarters = test: Test B preemergence/postemergence greenhouse plant response rating 0 to 10; type: in vivo, Chenopodium album; conditions: 0 to 10 scale
# Summary of the method: as §1
# downy brome = test: Test C preemergence/postemergence greenhouse plant response rating 0 to 100; type: in vivo, Bromus tectorum; conditions: POSTEMERGENCE; for Plant response rating Downy Brome: 0 to 100 scale
# Summary of the method: as §2
# barnyardgrass [1] = test: Test C flood test plant response rating 0 to 100; type: in vivo, Echinochloa crus-galli; conditions: for Plant response rating Barnyardgrass 2: flood test species listed under POSTEMERGENCE, 0 to 100 scale
# Summary of the method: (§3)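 Compounds in non-phytotoxic solvent applied preemergence to sandy loam one day after planting, postemergence at the 1–4 leaf stage, or to ~2.5 cm floodwater over silt loam.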
# giant foxtail [2] = test: Test B preemergence/postemergence greenhouse plant response rating 0 to 10; type: in vivo, Setaria faberii; conditions: 0 to 10 scale
# Summary of the method: as §1
# barnyardgrass [3] = test: as above; type: in vivo, Echinochloa crus-galli; conditions: 0 to 10 scale
# Summary of the method: as §1
# giant foxtail [4] = test: Test C preemergence/postemergence greenhouse plant response rating 0 to 100; type: in vivo, Setaria faberii; conditions: POSTEMERGENCE; for Plant response rating, Giant foxtail: 0 to 100 scale
# Summary of the method: as §2
# wild oat [5] = test: Test B preemergence/postemergence greenhouse plant response rating 0 to 10; type: in vivo, Avena fatua; conditions: 0 to 10 scale
# Summary of the method: as §1
# cotton = test: Test C preemergence/postemergence greenhouse plant response rating 0 to 100; type: in vivo, Gossypium hirsutum; conditions: POSTEMERGENCE; for Plant response rating, Cotton: 0 to 100 scale
# Summary of the method: as §2
# crabgrass = test: Test B preemergence/postemergence greenhouse plant response rating 0 to 10; type: in vivo, Digitaria spp.; conditions: 0 to 10 scale
# Summary of the method: as §1
# umbrella sedge = test: Test C flood test plant response rating 0 to 100; type: in vivo, Cyperus difformis; conditions: for Plant response rating Umbrella sedge: flood test species listed under POSTEMERGENCE, 0 to 100 scale
# Summary of the method: as §3
# rape = test: Test C preemergence/postemergence greenhouse plant response rating 0 to 100; type: in vivo, Brassica napus; conditions: POSTEMERGENCE; for Plant response rating, Rape: 0 to 100 scale
# Summary of the method: as §2
# wild buckwheat = test: Test B preemergence/postemergence greenhouse plant response rating 0 to 10; type: in vivo, Polygonum convolvulus; conditions: 0 to 10 scale
# Summary of the method: as §1
# wild oat [6] = test: Test C preemergence/postemergence greenhouse plant response rating 0 to 100; type: in vivo, Avena fatua; conditions: POSTEMERGENCE; for Plant response rating, Wild oat: 0 to 100 scale
# Summary of the method: as §2
# soybean = test: as above; type: in vivo, Glycine max; conditions: POSTEMERGENCE; for Plant response rating, Soybean: 0 to 100 scale
# Summary of the method: as §2
# cocklebur = test: Test B preemergence/postemergence greenhouse plant response rating 0 to 10; type: in vivo, Xanthium pensylvanicum; conditions: 0 to 10 scale
# Summary of the method: as §1
# rice = test: Test C flood test plant response rating 0 to 100; type: in vivo, Oryza sativa; conditions: for Plant response rating Rice Japonica: flood test species listed under POSTEMERGENCE, 0 to 100 scale
# Summary of the method: as §3
# [7] = POSTEMERGENCE section, flood test, Rate 4 g/ha
# [8] = Rate 16 g/ha, under POSTEMERGENCE head (flood test species)
smiles,measurement,setting,value
Fc1cc(Cl)c(OCCCl)cc1-c1nn2c(c1Cl)CCCC2 [Compound 49],"Plant response rating, Nutsedge","purple nutsedge; POSTEMERGENCE, Rate 50 g/ha",2
same,"Plant response rating, Nutsedge","purple nutsedge; PREEMERGENCE, Rate 50 g/ha",0
same,"Plant response rating, Nutsedge","purple nutsedge; Rate 200 g/ha, POSTEMERGENCE",6
same,"Plant response rating, Nutsedge","purple nutsedge; Rate 200 g/ha, PREEMERGENCE",0
same,"Plant response rating, Chickweed",chickweed; 62 g/ha,50
same,"Plant response rating, Chickweed",chickweed; 250 g/ha,80
same,"Plant response rating (0 to 100), Chickweed",chickweed; Rate 4 g/ha,20
same,"Plant response rating (0 to 100), Chickweed",chickweed; Rate 16 g/ha,50
same,"Plant response rating, Lambsquarter","lambsquarters; PREEMERGENCE, Rate 50 g/ha",10
same,"Plant response rating, Lambsquarter","lambsquarters; Rate 200 g/ha, POSTEMERGENCE",10
same,"Plant response rating, Lambsquarter","lambsquarters; Rate 200 g/ha, PREEMERGENCE",10
same,Plant response rating Downy Brome,downy brome; 62 g/ha,60
same,Plant response rating Downy Brome,downy brome; 250 g/ha,70
same,"Plant response rating (0 to 100), Downy Brome",downy brome; Rate 4 g/ha,30
same,"Plant response rating (0 to 100), Downy Brome",downy brome; Rate 16 g/ha,40
same,"Plant response rating (0 to 100), Barnyardgrass 2",barnyardgrass [1]; [7],90
same,"Plant response rating (0 to 100), Barnyardgrass 2",barnyardgrass [1]; [8],100
same,Plant response rating Barnyardgrass 2,barnyardgrass [1]; 62 g/ha,100
same,Plant response rating Barnyardgrass 2,barnyardgrass [1]; 250 g/ha,100
same,"Plant response rating, Giant foxtail","giant foxtail [2]; POSTEMERGENCE, Rate 50 g/ha",4
same,"Plant response rating, Giant foxtail","giant foxtail [2]; PREEMERGENCE, Rate 50 g/ha",4
same,"Plant response rating, Giant foxtail","giant foxtail [2]; Rate 200 g/ha, POSTEMERGENCE",6
same,"Plant response rating, Giant foxtail","giant foxtail [2]; Rate 200 g/ha, PREEMERGENCE",10
same,"Plant response rating, Barnyardgrass","barnyardgrass [3]; POSTEMERGENCE, Rate 50 g/ha",3
same,"Plant response rating, Barnyardgrass","barnyardgrass [3]; POSTEMERGENCE, Rate 200 g/ha",7
same,"Plant response rating, Barnyardgrass","barnyardgrass [3]; PREEMERGENCE, Rate 50 g/ha",0
same,"Plant response rating, Barnyardgrass","barnyardgrass [3]; Rate 200 g/ha, PREEMERGENCE",5
same,"Plant response rating, Giant foxtail",giant foxtail [4]; 62 g/ha,50
same,"Plant response rating, Giant foxtail",giant foxtail [4]; 250 g/ha,60
same,"Plant response rating (0 to 100), Giant foxtail",giant foxtail [4]; Rate 4 g/ha,30
same,"Plant response rating (0 to 100), Giant foxtail",giant foxtail [4]; Rate 16 g/ha,40
same,"Plant response rating, Wild oat","wild oat [5]; POSTEMERGENCE, Rate 50 g/ha",3
same,"Plant response rating, Wild oat","wild oat [5]; PREEMERGENCE, Rate 50 g/ha",0
same,"Plant response rating, Wild oat","wild oat [5]; Rate 200 g/ha, POSTEMERGENCE",4
same,"Plant response rating, Cotton",cotton; 62 g/ha,100
same,"Plant response rating, Cotton",cotton; 250 g/ha,100
same,"Plant response rating (0 to 100), Cotton",cotton; Rate 4 g/ha,90
same,"Plant response rating (0 to 100), Cotton",cotton; Rate 16 g/ha,90
same,"Plant response rating, Crabgrass","crabgrass; POSTEMERGENCE, Rate 50 g/ha",4
same,"Plant response rating, Crabgrass","crabgrass; PREEMERGENCE, Rate 50 g/ha",0
same,"Plant response rating, Crabgrass","crabgrass; Rate 200 g/ha, PREEMERGENCE",5
same,"Plant response rating (0 to 100), Umbrella sedge",umbrella sedge; [7],40
same,"Plant response rating (0 to 100), Umbrella sedge",umbrella sedge; [8],70
same,Plant response rating Umbrella sedge,umbrella sedge; 62 g/ha,90
same,Plant response rating Umbrella sedge,umbrella sedge; 250 g/ha,95
same,"Plant response rating, Rape",rape; 62 g/ha,70
same,"Plant response rating, Rape",rape; 250 g/ha,100
same,"Plant response rating (0 to 100), Rape",rape; Rate 4 g/ha,50
same,"Plant response rating (0 to 100), Rape",rape; Rate 16 g/ha,60
same,"Plant response rating, Wild buckwheat","wild buckwheat; POSTEMERGENCE, Rate 50 g/ha",10
same,"Plant response rating, Wild buckwheat","wild buckwheat; PREEMERGENCE, Rate 50 g/ha",7
same,"Plant response rating, Wild buckwheat","wild buckwheat; Rate 200 g/ha, POSTEMERGENCE",10
same,"Plant response rating, Wild buckwheat","wild buckwheat; Rate 200 g/ha, PREEMERGENCE",10
same,"Plant response rating, Wild oat",wild oat [6]; 62 g/ha,50
same,"Plant response rating, Wild oat",wild oat [6]; 250 g/ha,60
same,"Plant response rating (0 to 100), Wild oat",wild oat [6]; Rate 4 g/ha,20
same,"Plant response rating (0 to 100), Wild oat",wild oat [6]; Rate 16 g/ha,40
same,"Plant response rating, Soybean",soybean; 62 g/ha,70
same,"Plant response rating, Soybean",soybean; 250 g/ha,80
same,"Plant response rating (0 to 100), Soybean",soybean; Rate 4 g/ha,40
same,"Plant response rating (0 to 100), Soybean",soybean; Rate 16 g/ha,50
same,"Plant response rating, Cocklebur","cocklebur; POSTEMERGENCE, Rate 50 g/ha",9
same,"Plant response rating, Cocklebur","cocklebur; POSTEMERGENCE, Rate 200 g/ha",8
same,"Plant response rating, Cocklebur","cocklebur; PREEMERGENCE, Rate 50 g/ha",0
same,"Plant response rating, Cocklebur","cocklebur; Rate 200 g/ha, PREEMERGENCE",0
same,"Plant response rating (0 to 100), Rice Japonica",rice; [7],10
same,"Plant response rating (0 to 100), Rice Japonica",rice; [8],30
same,Plant response rating Rice Japonica,rice; 62 g/ha,50
same,Plant response rating Rice Japonica,rice; 250 g/ha,60
